One assay has as its target AMPK A1/B1/G1 (Homo sapiens, UniProt Q13131). In words: SelectScreen kinase profiling: AMPK A1/B1/G1. It counts as biochemical. To be noted: 1 µM compound; [ATP] 50 µM. The protocol: (§1) Effect of the indicated compounds on the activity of various kinases was assessed by SelectScreen Kinase Profiling Service (Invitrogen-Life Technologies, Paisley, UK). Assays were performed using 1 μM of the tested compounds and ATP concentration as indicated in the corresponding tables. In the case of […] a screen using 10 μM of the compound was also carried out, as indicated in the corresponding table.

The target of a further assay is BTK (Homo sapiens, UniProt Q06187). In words: SelectScreen kinase profiling: BTK. The class given is biochemical. The conditions noted are these: [ATP] 25 µM. Here is the method: as §1
Chain of BTK (Q06187 whole entry): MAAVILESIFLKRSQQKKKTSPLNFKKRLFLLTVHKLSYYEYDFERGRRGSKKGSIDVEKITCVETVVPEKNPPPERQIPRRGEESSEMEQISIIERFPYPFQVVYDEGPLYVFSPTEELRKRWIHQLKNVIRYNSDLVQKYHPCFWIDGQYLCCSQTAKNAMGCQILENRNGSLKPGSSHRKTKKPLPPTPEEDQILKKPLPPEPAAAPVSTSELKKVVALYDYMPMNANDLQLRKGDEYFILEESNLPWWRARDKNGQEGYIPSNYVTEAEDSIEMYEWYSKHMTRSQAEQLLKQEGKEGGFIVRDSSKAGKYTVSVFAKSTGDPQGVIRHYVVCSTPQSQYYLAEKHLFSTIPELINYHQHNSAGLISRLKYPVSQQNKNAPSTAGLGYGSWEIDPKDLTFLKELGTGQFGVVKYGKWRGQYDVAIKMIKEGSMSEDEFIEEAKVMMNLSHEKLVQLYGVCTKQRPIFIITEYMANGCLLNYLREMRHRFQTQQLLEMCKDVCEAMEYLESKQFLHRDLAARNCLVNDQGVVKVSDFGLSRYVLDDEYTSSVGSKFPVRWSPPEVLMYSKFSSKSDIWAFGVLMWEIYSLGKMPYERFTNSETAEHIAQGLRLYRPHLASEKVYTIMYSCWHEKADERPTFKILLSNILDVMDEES
The target in the next assay is CDK1/cyclin B (Homo sapiens, UniProt P06493). In words: SelectScreen kinase profiling: CDK1/cyclin B. It counts as biochemical. To be noted: [ATP] 25 µM. The protocol: as §1
Chain of CDK1/cyclin B (P06493 whole entry): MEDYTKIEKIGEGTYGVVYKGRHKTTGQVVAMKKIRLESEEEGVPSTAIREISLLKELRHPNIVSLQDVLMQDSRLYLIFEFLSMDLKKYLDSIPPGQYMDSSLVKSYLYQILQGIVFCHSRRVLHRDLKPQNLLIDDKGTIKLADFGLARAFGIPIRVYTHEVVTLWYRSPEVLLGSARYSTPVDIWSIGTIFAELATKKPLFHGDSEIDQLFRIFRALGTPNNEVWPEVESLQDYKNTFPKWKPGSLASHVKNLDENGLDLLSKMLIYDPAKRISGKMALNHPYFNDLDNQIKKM
Chain of CDK1/cyclin B (P14635 whole entry partner): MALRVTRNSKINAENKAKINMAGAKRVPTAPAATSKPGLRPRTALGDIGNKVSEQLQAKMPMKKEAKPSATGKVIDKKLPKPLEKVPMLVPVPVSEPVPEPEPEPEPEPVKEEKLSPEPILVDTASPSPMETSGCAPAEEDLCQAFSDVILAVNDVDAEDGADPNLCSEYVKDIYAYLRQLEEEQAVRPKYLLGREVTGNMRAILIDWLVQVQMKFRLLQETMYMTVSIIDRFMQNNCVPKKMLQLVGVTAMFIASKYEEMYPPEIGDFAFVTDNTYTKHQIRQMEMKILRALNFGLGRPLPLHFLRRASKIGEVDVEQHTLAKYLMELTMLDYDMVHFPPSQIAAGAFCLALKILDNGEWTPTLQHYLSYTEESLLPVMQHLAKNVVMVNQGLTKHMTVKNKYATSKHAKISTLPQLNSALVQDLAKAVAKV
In the next assay the target is CSNK1G1 (CK1γ1) (Homo sapiens, UniProt Q9HCP0). Put plainly: SelectScreen kinase profiling: CSNK1G1. It counts as biochemical. To be noted: [ATP] 5 µM. The protocol: as §1
Chain of CSNK1G1 (CK1γ1) (Q9HCP0 whole entry): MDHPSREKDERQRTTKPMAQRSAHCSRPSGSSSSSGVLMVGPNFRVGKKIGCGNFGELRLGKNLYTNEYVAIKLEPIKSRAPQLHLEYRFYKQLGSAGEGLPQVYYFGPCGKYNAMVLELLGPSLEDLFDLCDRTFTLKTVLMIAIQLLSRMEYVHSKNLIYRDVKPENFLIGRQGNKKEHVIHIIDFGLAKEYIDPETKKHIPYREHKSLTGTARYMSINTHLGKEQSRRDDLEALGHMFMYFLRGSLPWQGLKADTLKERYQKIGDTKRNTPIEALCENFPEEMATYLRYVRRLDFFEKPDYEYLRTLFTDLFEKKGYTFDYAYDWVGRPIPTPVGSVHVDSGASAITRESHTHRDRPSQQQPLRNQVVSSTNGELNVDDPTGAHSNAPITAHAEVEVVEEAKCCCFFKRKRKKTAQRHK
Another assay deals with FRAP1 (mTOR) (Homo sapiens, UniProt P42345). Put plainly: SelectScreen kinase profiling: mTOR. The class given is biochemical. The protocol:
as §1

A further assay has as its target GSK3A (GSK3α) (Homo sapiens, UniProt P49840). Put plainly: SelectScreen kinase profiling: GSK3A. The conditions noted are these: [ATP] 10 µM. The class given is biochemical. Here is the method: as §1
The target in the next assay is IKBKB (IKKβ) (Homo sapiens, UniProt O14920). In words: SelectScreen kinase profiling: IKBKB. The class given is biochemical. The conditions noted are these: 1 µM compound; [ATP] 5 µM. Here is the method: as §1
Chain of IKBKB (IKKβ) (O14920 whole entry): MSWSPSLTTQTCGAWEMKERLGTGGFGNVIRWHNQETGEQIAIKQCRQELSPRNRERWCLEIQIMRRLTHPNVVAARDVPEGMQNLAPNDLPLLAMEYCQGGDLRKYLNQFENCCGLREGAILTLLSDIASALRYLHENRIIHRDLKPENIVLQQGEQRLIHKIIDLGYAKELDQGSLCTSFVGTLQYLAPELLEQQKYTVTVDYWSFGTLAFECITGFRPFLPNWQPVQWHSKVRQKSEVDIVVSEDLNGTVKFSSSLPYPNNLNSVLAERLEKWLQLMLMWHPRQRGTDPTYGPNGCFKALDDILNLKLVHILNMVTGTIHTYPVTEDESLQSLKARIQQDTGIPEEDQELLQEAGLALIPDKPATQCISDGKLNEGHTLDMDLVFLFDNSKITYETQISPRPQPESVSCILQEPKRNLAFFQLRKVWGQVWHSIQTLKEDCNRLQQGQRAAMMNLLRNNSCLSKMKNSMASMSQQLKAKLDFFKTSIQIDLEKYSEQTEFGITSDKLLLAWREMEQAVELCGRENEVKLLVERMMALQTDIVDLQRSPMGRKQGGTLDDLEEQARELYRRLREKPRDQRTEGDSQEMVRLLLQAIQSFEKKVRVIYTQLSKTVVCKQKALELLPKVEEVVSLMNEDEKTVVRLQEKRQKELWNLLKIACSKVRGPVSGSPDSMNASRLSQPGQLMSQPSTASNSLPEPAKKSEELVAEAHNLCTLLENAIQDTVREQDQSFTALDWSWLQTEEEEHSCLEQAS
For another assay, the target named is ITK (Homo sapiens, UniProt Q08881). Put plainly: SelectScreen kinase profiling: ITK. The conditions noted are these: [ATP] 5 µM. The class given is biochemical. The protocol: as §1
The target of another assay is MAPK8 (JNK1) (Homo sapiens, UniProt P45983). Put plainly: SelectScreen kinase profiling: MAPK8. It counts as biochemical. The conditions noted are these: [ATP] 100 µM. Here is the method: as §1
Chain of MAPK8 (JNK1) (P45983 whole entry): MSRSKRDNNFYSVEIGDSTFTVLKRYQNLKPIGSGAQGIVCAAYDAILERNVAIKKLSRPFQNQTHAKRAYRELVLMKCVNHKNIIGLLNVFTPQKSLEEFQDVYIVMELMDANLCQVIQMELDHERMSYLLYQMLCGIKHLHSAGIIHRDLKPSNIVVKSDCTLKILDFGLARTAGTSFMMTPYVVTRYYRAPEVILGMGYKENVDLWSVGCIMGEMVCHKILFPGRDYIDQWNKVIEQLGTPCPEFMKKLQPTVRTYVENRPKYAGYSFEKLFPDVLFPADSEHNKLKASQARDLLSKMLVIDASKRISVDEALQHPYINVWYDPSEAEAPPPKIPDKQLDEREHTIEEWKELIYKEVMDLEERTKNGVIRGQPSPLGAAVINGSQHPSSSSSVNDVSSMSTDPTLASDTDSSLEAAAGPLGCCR
A further assay concerns the target MAPK9 (JNK2) (Homo sapiens, UniProt P45984). Put plainly: SelectScreen kinase profiling: MAPK9. It counts as biochemical. The conditions noted are these: [ATP] 100 µM. Here is the method: as §1
The target in the next assay is PRKCA (PKCα) (Homo sapiens, UniProt P17252). In words: SelectScreen kinase profiling: PRKCA. It counts as biochemical. The conditions noted are these: [ATP] 25 µM. Here is the method:
as §1

Another assay concerns the target PRKCD (PKCδ) (Homo sapiens, UniProt Q05655). In words: SelectScreen kinase profiling: PRKCD. It counts as biochemical. To be noted: [ATP] 25 µM. The protocol: as §1
Another assay deals with PRKCZ (PKCζ) (Homo sapiens, UniProt Q05513). In words: SelectScreen kinase profiling: PRKCZ. The class given is biochemical. To be noted: [ATP] 5 µM. The protocol:
as §1

In a further assay the target is RAF1 (cRAF) Y340D Y341D (Homo sapiens, UniProt P04049, Y340D/Y341D). In words: SelectScreen kinase profiling: RAF1. It counts as biochemical. To be noted: [ATP] 100 µM. Here is the method: as §1
Chain of RAF1 (cRAF) Y340D Y341D (P04049 whole entry Y340D/Y341D): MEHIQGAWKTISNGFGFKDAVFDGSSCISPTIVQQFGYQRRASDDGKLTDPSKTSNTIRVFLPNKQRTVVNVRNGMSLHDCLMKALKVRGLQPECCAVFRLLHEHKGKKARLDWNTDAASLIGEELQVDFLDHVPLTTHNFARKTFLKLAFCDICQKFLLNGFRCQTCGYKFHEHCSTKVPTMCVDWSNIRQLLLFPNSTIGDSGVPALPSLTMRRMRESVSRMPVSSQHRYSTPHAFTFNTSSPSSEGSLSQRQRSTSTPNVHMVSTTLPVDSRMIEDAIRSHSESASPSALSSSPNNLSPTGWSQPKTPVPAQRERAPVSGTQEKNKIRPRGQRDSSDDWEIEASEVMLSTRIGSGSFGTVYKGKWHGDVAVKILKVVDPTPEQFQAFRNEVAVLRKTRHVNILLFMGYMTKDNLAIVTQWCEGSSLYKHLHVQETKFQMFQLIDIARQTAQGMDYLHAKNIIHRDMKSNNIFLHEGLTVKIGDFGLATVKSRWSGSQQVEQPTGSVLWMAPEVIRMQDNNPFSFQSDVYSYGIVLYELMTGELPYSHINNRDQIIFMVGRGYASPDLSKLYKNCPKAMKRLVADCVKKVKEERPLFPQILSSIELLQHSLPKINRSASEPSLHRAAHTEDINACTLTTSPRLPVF
A further assay has as its target ROCK2 (Homo sapiens, UniProt O75116). Put plainly: SelectScreen kinase profiling: ROCK2. The conditions noted are these: [ATP] 50 µM. It counts as biochemical. The protocol: as §1
The target of another assay is SRC (Homo sapiens, UniProt P12931). In words: SelectScreen kinase profiling: SRC. The class given is biochemical. To be noted: [ATP] 50 µM. The protocol:
as §1

Another assay deals with CDK7/cyclin H/MNAT1 (Homo sapiens, UniProt P50613). In words: SelectScreen kinase profiling: CDK7/cyclin H/MNAT1. It counts as biochemical. To be noted: [ATP] 150 µM. Here is the method: as §1
For a further assay, the target named is CHUK (IKKα) (Homo sapiens, UniProt O15111). Put plainly: SelectScreen kinase profiling: CHUK. It counts as biochemical. The conditions noted are these: [ATP] 10 µM. Here is the method: as §1
For assay [1], the target named is PIK3CA/PIK3R1(p110α/p85α) (Homo sapiens, UniProt P42336). In words: SelectScreen kinase profiling: PIK3CA/PIK3R1. The conditions noted are these: [ATP] 25 µM. It counts as biochemical. Here is the method: as §1
A further assay has as its system PC3 xenografts. Put plainly: Anti-tumour activity assay on PC3 xenografts. The class given is in vivo, nude athymic CD-1 nu/nu mice. The conditions noted are these: for tumour growth: 14 consecutive days. Here is the method: Male nude athymic CD-1 nu/nu mice (8-weeks old) were obtained from Harlan (San Pietro al Natisone, Italy) and maintained under specific pathogen-free conditions with food and water provided ad libitum. The general health status of the animals was monitored daily. Procedure involving animals and their care were conducted in conformity with the institutional guidelines that are in compliance with national and international laws and policies.
Exponentially growing PC3 cells were harvested, washed twice and resuspended in PBS at a concentration of 2.5 × 10^7 cells ml^−1. A suspension of 5 × 10^6 PC3 cells was injected subcutaneously (s.c.) into the left flank of the recipient mice. When tumours reached a size of ∼70 mm^3 (approximately 15 days after tumour cell implant), mice were divided into seven groups (n=7). […] Control mice were treated with water in an equal volume. The diameters of s.c. growing tumours were measured with a caliper twice a week and the experiment was ended at day 28 after the implantation.
The volume of s.c. growing tumours was calculated by the formula: Tumour weight (mg)=(length × width^2)/2. Differences in s.c tumour growth between the treatment groups were evaluated with a one-way ANOVA followed by Fisher's test using the StatView statistical package (SAS Institute, Cary, NC, USA). The percentage of tumour growth was calculated as T/C%=(RTV-treated animals/RTV-control animals) × 100, where RTV was the mean relative tumour volume calculated as RTV=Vt/V0. Vt was the tumour volume on the day of measurement and V0 was the tumour volume at the beginning of the treatment. The percentage of tumour weight inhibition (TWI%) was calculated using the formula: TWI%=100–T/C%. The log cell kill (LCK) was calculated using the formula: LCK=T−C/3.32 × Td, where T−C is the tumour growth delay calculated as the difference in median time (in days) required for the tumours in the treatment (T) and control group (C) to reach a predetermined size (i.e., 1000 mg). Td is the tumour volume doubling time in days, determined in the exponential growth phase of the control group from a best-fit straight line. […]
The inositol compounds (12.5–25–50 mg kg^−1 day^−1) and vehicle (water) were given daily by intraperitoneal (i.p.) injections for 14 consecutive days (days 15–28). Tumour size was assessed twice weekly. (A, B) Tumour growth in 2-O-Bn-InsP5-treated mice (A) and InsP5-treated mice (B) compared with control group measured for the duration of the experiment. Results are expressed as mean±s.e. […] The percentage of tumour weight inhibition (TWI%), the tumour growth delay (T−C) and the log cell kill (LCK) were calculated as described in the MATERIALS AND METHODS section. […] Phosphorylation of Akt at its residues Ser473 and Thr308 was assessed by using specific antibodies. […]

SMILES strings stand for the structures.

Chain of PRKCZ (PKCζ) (Q05513 whole entry): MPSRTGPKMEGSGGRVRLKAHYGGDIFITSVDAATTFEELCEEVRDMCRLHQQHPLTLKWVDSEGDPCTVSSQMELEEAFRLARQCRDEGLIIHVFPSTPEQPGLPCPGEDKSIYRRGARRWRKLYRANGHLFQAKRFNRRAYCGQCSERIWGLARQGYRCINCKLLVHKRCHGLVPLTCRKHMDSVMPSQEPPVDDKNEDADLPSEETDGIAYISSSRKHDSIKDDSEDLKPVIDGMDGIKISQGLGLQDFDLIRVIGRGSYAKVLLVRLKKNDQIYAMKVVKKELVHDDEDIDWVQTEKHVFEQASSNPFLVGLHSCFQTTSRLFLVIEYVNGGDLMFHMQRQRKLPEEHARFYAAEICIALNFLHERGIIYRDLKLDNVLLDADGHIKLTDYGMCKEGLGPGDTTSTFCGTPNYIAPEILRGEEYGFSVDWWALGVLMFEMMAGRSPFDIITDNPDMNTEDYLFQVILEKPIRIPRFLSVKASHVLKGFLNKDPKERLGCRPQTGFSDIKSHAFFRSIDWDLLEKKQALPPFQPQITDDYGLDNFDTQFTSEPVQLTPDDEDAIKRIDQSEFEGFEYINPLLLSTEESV
Chain of MAPK9 (JNK2) (P45984 whole entry): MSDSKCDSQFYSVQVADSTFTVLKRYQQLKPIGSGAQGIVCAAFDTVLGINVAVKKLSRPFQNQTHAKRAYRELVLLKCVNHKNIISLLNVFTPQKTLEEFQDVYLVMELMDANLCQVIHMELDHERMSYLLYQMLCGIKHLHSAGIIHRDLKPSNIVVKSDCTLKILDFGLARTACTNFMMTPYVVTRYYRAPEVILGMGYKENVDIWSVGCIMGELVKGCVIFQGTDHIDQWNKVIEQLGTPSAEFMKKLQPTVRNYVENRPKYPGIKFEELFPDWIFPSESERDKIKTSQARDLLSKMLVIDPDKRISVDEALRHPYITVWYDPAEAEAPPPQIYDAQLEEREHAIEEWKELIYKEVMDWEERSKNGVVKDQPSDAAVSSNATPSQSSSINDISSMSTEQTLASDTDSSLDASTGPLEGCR

Regarding `O=P(O)(O)OC1C(OCc2ccccc2)C(OP(=O)(O)O)C(OP(=O)(O)O)C(OP(=O)(O)O)C1OP(=O)(O)O` (centres unmarked) [2-O-Bn-InsP5, 2-O-benzyl-myo-inositol 1,3,4,5,6-pentakisphosphate], the inhibition at 1 µM against AMPK A1/B1/G1 stood at 16%; on BTK (1 µM compound), 5%; against CDK1/cyclin B (1 µM compound) it was 9%; on CSNK1G1 (CK1γ1) (1 µM compound), 7%; against FRAP1 (mTOR) (1 µM compound, [ATP] 10 µM) it was 48%; against GSK3A (GSK3α) (1 µM compound) it was 3%. Further, the inhibition at 1 µM against IKBKB (IKKβ) was 13%; at ITK (1 µM compound), -11%; at MAPK8 (JNK1) (1 µM compound), 24%; against MAPK9 (JNK2) (1 µM compound), -1%; on PRKCA (PKCα) (1 µM compound), 21%; on PRKCD (PKCδ) (1 µM compound), 9%. Moreover, the inhibition at 1 µM is 10% against PRKCZ (PKCζ) (1 µM compound); 5% on RAF1 (cRAF) Y340D Y341D (1 µM compound); 13% on ROCK2 (1 µM compound); 4% at SRC (1 µM compound); -2% against CDK7/cyclin H/MNAT1 (1 µM compound); -2% against CHUK (IKKα) (1 µM compound). Also, the inhibition at 1 µM in assay [1] (1 µM compound) was 2%. This compound registered an IC50 against FRAP1 (mTOR) (10-point titration, [ATP] 10 μM) of 1300 nM. Further, the “T-C (tumour growth delay)” value with PC3 xenografts (50 mg kg^-1, i.p., qdx15) is listed as roughly 9 days. The tumour growth result in the assay on PC3 xenografts (50 mg kg^−1 daily i.p., significant from day 22) is given as “strong reduction in tumour growth”; in the assay with PC3 xenografts (12.5 and 25 mg kg^−1 daily i.p., vs untreated mice), “clearly decreased the growth of tumours”.

Turning to `O=P(O)(O)OC1C(O)C(OP(=O)(O)O)C(OP(=O)(O)O)C(OP(=O)(O)O)C1OP(=O)(O)O` (centres unmarked) [InsP5, inositol 1,3,4,5,6-pentakisphosphate], the inhibition at 1 µM came out at 4% against AMPK A1/B1/G1 and 1% against IKBKB (IKKβ). The inhibition at 10 µM is 8% at BTK (10 µM compound); 16% on CDK1/cyclin B (10 µM compound); 13% against CSNK1G1 (CK1γ1) (10 µM compound); 16% against FRAP1 (mTOR) (10 µM compound, [ATP] 10 µM); 15% against GSK3A (GSK3α) (10 µM compound); 6% against ITK (10 µM compound). Moreover, the inhibition at 10 µM on MAPK8 (JNK1) (10 µM compound) was 14%; on MAPK9 (JNK2) (10 µM compound), 23%; on PRKCA (PKCα) (10 µM compound), 30%; at PRKCD (PKCδ) (10 µM compound) it was 19%; on PRKCZ (PKCζ) (10 µM compound) it was -8%; at RAF1 (cRAF) Y340D Y341D (10 µM compound) it was 18%. Also, the inhibition at 10 µM on ROCK2 (10 µM compound) was 15%; at SRC (10 µM compound), 10%; at CDK7/cyclin H/MNAT1 (10 µM compound) it was 0%; on CHUK (IKKα) (10 µM compound), 3%; in assay [1] (10 µM compound), 5%. The “% Inhibition Mean” value on FRAP1 (mTOR) (10 µM compound, [ATP] 10 µM) is listed as “did not inhibit mTOR”. In addition, the tumour growth entry in the assay with PC3 xenografts (up to 50 mg kg^−1 daily i.p.) is “no effect”.
